Experimental findings from ChEMBL document CHEMBL5380860, “Design, Synthesis, and Antitumor Activity of Potent and Selective EGFR L858R/T790M Inhibitors and Identification of a Combination Therapy to Overcome Acquired Resistance in Models of Non-small-cell Lung Cancer” (J Med Chem, 2023) are described below.

One data set has as its system NCI-H1975. Put plainly: Antiproliferative activity against human NCI-H1975 cells harboring EGFR L858R/T790M mutant assessed as reduction in cell viability measured after 72 hrs by MTT assay. It is filed as functional, cell-based. To be noted: NCI-H1975, 72 h. A general note: Tetrazolium assays rely on reduction of a dye to a coloured formazan, in cell work by metabolically active cells.

A short description of data set [1]: Cytotoxicity against human A549 cells harboring wild type EGFR assessed as reduction in cell viability measured after 72 hrs by MTT assay. It counts as toxicity, cell-based.
The next data set relates to HCC827. Put plainly: Antiproliferative activity against human HCC827 cells harboring EGFR exon del 19 mutant assessed as reduction in cell viability measured after 72 hrs by MTT assay. It counts as functional, cell-based. To be noted: HCC827, 72 h.
Data set [2] in a line: Cytotoxicity against human A-431 cells harboring wild type EGFR assessed as reduction in cell viability measured after 72 hrs by MTT assay. It counts as toxicity, cell-based.

One may read the IC50 as the midpoint of a concentration-inhibition curve. Turning to `C=CC(=O)Nc1cccc(Nc2nc(Nc3ccc(N4CCC(N(C)C)CC4)cc3OC)nc3ccc(Cl)cc23)c1`, the IC50 with NCI-H1975 came to 0.561 µM; with HCC827 it was 0.159 µM. The IC50 at 72 h in data set [1] stood at 3.59 µM; in data set [2], 5.8 µM.

In the case of `C=CC(=O)Nc1cccc(Nc2nc(Nc3ccc(N4CCC(N5CCN(C)CC5)CC4)cc3OC)nc3ccc(Cl)cc23)c1`, the IC50 came out at 1.36 µM in the data set on NCI-H1975 and 1.68 µM in the data set with HCC827. In addition, the concentration for half-maximal inhibition (IC50) at 72 h in data set [1] was above 10 µM; in data set [2], 6.6 µM.

For the compound `C=CC(=O)Nc1cccc(Nc2nc(Nc3ccc(N4CCC(N(C)C)CC4)cc3OC)nc3ccc(F)cc23)c1`, the results for the concentration for half-maximal inhibition (IC50) in the data set with NCI-H1975 and with HCC827 were 2.43 µM and 1.08 µM, respectively. For the same compound, the IC50 at 72 h in data set [1] and in data set [2] was above 10 µM each time.

Take `C=CC(=O)Nc1cccc(Nc2nc(Nc3ccc(N4CCOCC4)cc3)nc3ccc(F)cc23)c1`: the IC50 in the data set on NCI-H1975 was 2.02 µM; in the data set on HCC827 it was 1.39 µM. Moreover, the IC50 at 72 h was 8.52 µM in data set [1] and above 10 µM in data set [2].

As for `C=CC(=O)Nc1cccc(Nc2nc(Nc3ccc(N4CCN(C)CC4)cc3)nc3ccc(OC)cc23)c1`, the 50% inhibitory concentration (IC50) in the data set on NCI-H1975 is 2.98 µM; in the data set on HCC827, 1.76 µM. For the same compound, the half-inhibitory concentration (IC50) at 72 h in data set [1] came out at 3.99 µM; in data set [2], 4.82 µM.

Turning to `C=CC(=O)Nc1cccc(Nc2nc(Nc3ccc(N4CCN(C)CC4)cc3)nc3cc(OC)c(OC)cc23)c1`, the IC50 in the data set with NCI-H1975 stood at 4.2 µM; with HCC827 it was 4.23 µM. Further, the 50% inhibitory concentration (IC50) at 72 h in data set [1] and in data set [2] was above 10 µM each time.

For `C=CC(=O)Nc1cccc(Nc2nc(Nc3ccc(N(C)CCN(C)C)cc3OC)nc3ccc(F)cc23)c1`, the IC50 was determined as 8.75 µM in the data set on NCI-H1975 and 6.58 µM in the data set on HCC827. Besides, the IC50 at 72 h in data set [1] and in data set [2] was above 10 µM in each case.

Regarding `C=CC(=O)Nc1cccc(Nc2nc(Nc3ccc(N4CCC(N5CCOCC5)CC4)cc3)nc3ccc(Cl)cc23)c1`, the values for the IC50 with NCI-H1975 and in the data set on HCC827 were 7.65 µM and 5.72 µM, respectively. Besides, the IC50 at 72 h in data set [1] and in data set [2] was above 10 µM each time.

With `C=CC(=O)Nc1cccc(Nc2nc(Nc3ccc(N(C)CCN(C)C)cc3OC)nc3ccc(Cl)cc23)c1`, the results for the half-maximal inhibitory concentration (IC50) in the data set with NCI-H1975 and in the data set on HCC827 were 6.84 µM and 5.98 µM, respectively. The 50% inhibitory concentration (IC50) at 72 h in data set [1] and in data set [2] was above 10 µM in each case.

Turning to `C=CC(=O)Nc1cccc(Nc2nc(Nc3ccc(N4CCN(C)CC4)cc3)nc3cc(Cl)ccc23)c1`, the IC50 with NCI-H1975 turned out to be 3.28 µM; in the data set with HCC827, 1.85 µM. Besides, the IC50 at 72 h in data set [1] came to 5.79 µM; in data set [2], 7.62 µM.

`C=CC(=O)Nc1cccc(Nc2nc(Nc3ccc(C4CCN(C)CC4)cc3)nc3ccc(F)cc23)c1`: the 50% inhibitory concentration (IC50) came out at 1.09 µM with NCI-H1975 and 1.85 µM in the data set with HCC827. Besides, the half-maximal inhibitory concentration (IC50) at 72 h in data set [1] was 5.86 µM; in data set [2], above 10 µM.

For `C=CC(=O)Nc1cccc(Nc2nc(Nc3ccc(N4CCN(C)CC4)cc3)nc3c2CCCC3)c1`, the half-inhibitory concentration (IC50) came to 3.43 µM in the data set on NCI-H1975 and 2.31 µM in the data set on HCC827. The IC50 at 72 h in data set [1] turned out to be 5.64 µM; in data set [2], 4.56 µM.

On to `C=CC(=O)Nc1cccc(Nc2nc(Nc3ccc(N4CCN(C)CC4)cc3)nc3ccc(Br)cc23)c1`, for which the IC50 in the data set with NCI-H1975 turned out to be 2.63 µM; in the data set on HCC827, 1.9 µM. Also, the IC50 at 72 h in data set [1] is 8.71 µM; in data set [2], 5.42 µM.

For the compound `C=CC(=O)Nc1cccc(Nc2nc(Nc3ccc(N4CCN(C)CC4)cc3)nc3c2CN(C(=O)OC(C)(C)C)CC3)c1`, the 50% inhibitory concentration (IC50) in the data set on NCI-H1975 stood at 8.65 µM; with HCC827 it was 7.81 µM. In addition, the IC50 at 72 h in data set [1] and in data set [2] was above 10 µM in each case.

Consider `C=CC(=O)Nc1cccc(Nc2nc(Nc3ccc(N4CCN(C)CC4)cc3OC)nc3ccc(Cl)cc23)c1`, for which the IC50 with NCI-H1975 was 0.321 µM; with HCC827, 0.12 µM. The figures for the IC50 at 72 h in data set [1] and in data set [2] were 3.52 µM and 2.42 µM, respectively.

Take `C=CC(=O)Nc1cccc(Nc2nc(Nc3ccc(N4CCC(N5CCN(C)CC5)CC4)cc3OC)nc3ccc(F)cc23)c1`: the 50% inhibitory concentration (IC50) with NCI-H1975 was 1.02 µM; in the data set with HCC827 it was 1.06 µM. The figures for the half-maximal inhibitory concentration (IC50) at 72 h in data set [1] and in data set [2] were 8.95 µM and above 10 µM, respectively.

For `C=CS(=O)(=O)Nc1cccc(Nc2nc(Nc3ccc(N4CCN(C)CC4)cc3)nc3ccc(Cl)cc23)c1`, the results for the IC50 in the data set on NCI-H1975 and in the data set with HCC827 were 1.03 µM and 1.49 µM, respectively. In addition, the IC50 at 72 h in data set [1] is above 10 µM; in data set [2], 8.77 µM.

As to `C=CC(=O)Nc1cccc(Nc2nc(Nc3ccc(N(C)CCN(C)C)cc3)nc3ccc(F)cc23)c1`, the half-maximal inhibitory concentration (IC50) was 1.79 µM in the data set on NCI-H1975 and 0.85 µM in the data set with HCC827. Further, the results for the IC50 at 72 h in data set [1] and in data set [2] were 2.57 µM and 3.15 µM, respectively.

As for `C=CC(=O)Nc1cccc(Nc2nc(Nc3ccc(N4CCN(C)CC4)c(F)c3)nc3ccc(Cl)cc23)c1`, the concentration for half-maximal inhibition (IC50) in the data set on NCI-H1975 came out at 0.045 µM; with HCC827, 0.019 µM. The IC50 at 72 h is 1.5 µM in data set [1] and 2.31 µM in data set [2].

On to `C=CC(=O)Nc1cccc(Nc2nc(Nc3ccc(N4CCC(N(C)C)CC4)cc3)nc3ccc(F)cc23)c1`, for which the 50% inhibitory concentration (IC50) was found to be 0.165 µM in the data set with NCI-H1975 and 0.056 µM in the data set with HCC827. Moreover, the values for the half-inhibitory concentration (IC50) at 72 h in data set [1] and in data set [2] were 1.26 µM and 1.84 µM, respectively.

Consider `C=CC(=O)Nc1cccc(Nc2nc(Nc3ccc(N4CCN(C)CC4)cc3)nc3ccc([N+](=O)[O-])cc23)c1`, for which the half-maximal inhibitory concentration (IC50) with NCI-H1975 amounted to 6.36 µM; in the data set on HCC827, 3.7 µM. For the same compound, the IC50 at 72 h in data set [1] and in data set [2] was above 10 µM in each case.

As for `C=CC(=O)Nc1cccc(Nc2nc(Nc3ccc(N4CCN(C)CC4)cc3)nc3ccc(I)cc23)c1`, the 50% inhibitory concentration (IC50) in the data set with NCI-H1975 was determined as 5.76 µM; in the data set with HCC827 it was 4.59 µM. In addition, the IC50 at 72 h in data set [1] and in data set [2] was above 10 µM in each case.

Take `C=CC(=O)Nc1cccc(Nc2nc(Nc3ccc(N4CCN(C)CC4)cc3)nc3c2CCN(C(=O)OCc2ccccc2)C3)c1`: the concentration for half-maximal inhibition (IC50) with NCI-H1975 and in the data set with HCC827 was above 10 µM each time. The half-inhibitory concentration (IC50) at 72 h in data set [1] and in data set [2] was above 10 µM throughout.

Take `C=CC(=O)Nc1cccc(Nc2nc(Nc3ccc(N4CCOCC4)cc3)nc3ccc(Cl)cc23)c1`: the IC50 in the data set with NCI-H1975 was 8.56 µM; with HCC827, 8.86 µM. Also, the concentration for half-maximal inhibition (IC50) at 72 h in data set [1] and in data set [2] was above 10 µM throughout.

Regarding `C=CC(=O)Nc1cccc(Nc2nc(Nc3ccc(N4CCC(N5CCOCC5)CC4)cc3OC)nc3ccc(Cl)cc23)c1`, the IC50 with NCI-H1975 worked out at 5.24 µM; in the data set with HCC827, 4.59 µM. Also, the IC50 at 72 h in data set [1] and in data set [2] was above 10 µM throughout.

Consider `C/C=C/C(=O)Nc1cccc(Nc2nc(Nc3ccc(N4CCN(C)CC4)cc3)nc3ccc(Cl)cc23)c1`, for which the IC50 stood at 0.231 µM in the data set with NCI-H1975 and 0.221 µM in the data set on HCC827. Moreover, the IC50 at 72 h in data set [1] is 3.65 µM; in data set [2] it was 4.53 µM.

In the case of `C=CC(=O)Nc1cccc(Nc2nc(Nc3ccc(N4CCN(C)CC4)cc3)nc3cc(OC)ccc23)c1`, the concentration for half-maximal inhibition (IC50) is 7.84 µM with NCI-H1975 and 4.31 µM with HCC827. The half-inhibitory concentration (IC50) at 72 h in data set [1] and in data set [2] was above 10 µM throughout.

`CC(C)=CC(=O)Nc1cccc(Nc2nc(Nc3ccc(N4CCN(C)CC4)cc3)nc3ccc(Cl)cc23)c1`: the IC50 with NCI-H1975 turned out to be 0.874 µM; with HCC827 it was 0.884 µM. Besides, the results for the IC50 at 72 h in data set [1] and in data set [2] were 5.33 µM and 3.29 µM, respectively.
